pIC50: −log10 of the molar value.

This test deals with Human immunodeficiency virus type 1 protease (Human immunodeficiency virus 1, UniProt Q72874). As to the kind of experiment: Inhibitory activity against HIV-1 proteinase.
In turn, `CC(C)CN1C[C@](O)([C@H](CC2CCCCC2)NC(=O)CC(C)(C)C)C[C@H]1C(=O)NC(C)(C)C` showed a pIC50 of 5.05. On to `CC(C)CN1CC(O)(CNC(=O)[C@@H]2N[C@@H]([C@H](NC(=O)Cc3ccccc3)C(=O)NCc3ccccc3)SC2(C)C)C[C@H]1C(=O)NC(C)(C)C` (stereo not given in full), for which the pIC50 is 7.52. This pIC50 lies 2.47 log units higher than the previous one. The result for `CC(C)CN1CC(O)(CNC(=O)OC(C)(C)C)C[C@H]1C(=O)NC(C)(C)C` (stereo not given in full) reads less than 4.05; that for `CC(C)CN1CC(O)(CNC(=O)OC(C)(C)C)C[C@@H]1C(=O)NC(C)(C)C` (stereo not given in full), less than 4.05. For the compound `CC(C)CN1CC(O)(CNC(=O)[C@H]2N[C@@H]([C@H](NC(=O)Cc3ccccc3)C(=O)NCc3ccccc3)SC2(C)C)C[C@H]1C(=O)NC(C)(C)C` (stereo not given in full), the pIC50 was 7.15.

In general, pIC50 refers to −log10 of the IC50, conventionally taken in molar units. Low values mean a high IC50, high ones a low IC50.

(Values after ChEMBL document CHEMBL1149941, “The design and synthesis of novel hydroxyproline inhibitors of HIV-1 proteinase” (Bioorg Med Chem Lett, 1993).)
